What all share (assay): microbe, parasite or virus in culture
For experiment [1], the system named is T1, M. tuberculosis N0145.
T1 construct: N0145 (clinical isolate)
The arrangement: species or system M. bovis BCG, M. tuberculosis H37Rv or N0145.

Experiment [2] relates to T2, M. bovis BCG.
T2 construct: BCG
Also noted: species or system M. tuberculosis H37Rv or N0145. The settings on record: Mycobacterium tuberculosis variant bovis BCG, 15 h, read-out: BCG / −Q203.

Experiment [3] concerns T3, M. tuberculosis H37Rv.
T3 construct: H37Rv
The arrangement: species or system M. bovis BCG, M. tuberculosis H37Rv or N0145. The settings on record: Mycobacterium tuberculosis, 15 h, read-out: Replicating ATP IC50 (µM) H37Rv / −Q203.

In experiment [4] the test system is T1, M. tuberculosis N0145. The arrangement: species or system M. bovis BCG, M. tuberculosis H37Rv or N0145. Conditions: Mycobacterium tuberculosis, N0145, 15 h; read-out: N0145 / –Q203.
In experiment [5] the test system is T3, M. tuberculosis H37Rv. Also noted: ATP depletion in replicating mycobacteria without Q203, BacTiter-Glo luminescence. The settings on record: Mycobacterium tuberculosis, 15 h, read-out: Replicating ATP IC50 (µM) H37Rv / −Q203.
Experiment [6] deals with T2, M. bovis BCG. The arrangement: species or system M. tuberculosis H37Rv or N0145. The settings on record: Mycobacterium tuberculosis variant bovis BCG, 15 h, read-out: BCG / −Q203. The source holds these as a separate data set.
Setting [7] is: Mycobacterium tuberculosis, N0145, 15 h; read-out: N0145 / –Q203.

Like-named read-outs stand apart in the source and are kept apart here.

With `FC(F)(F)c1ccc(CCNc2ncnc3ccccc23)cc1` [6a, Quinazolin-4-yl{2-[4-(trifluoromethyl)phenyl]ethyl}amine], the IC50 in experiment [1] (setting [7]), in experiment [2] and in experiment [3] was more than 25 µM throughout.

On to `FC(F)(F)Oc1ccc(CCNc2ncnc3ccccc23)cc1` [7a, Quinazolin-4-yl{2-[4-(trifluoromethoxy)phenyl]ethyl}amine], for which the IC50 in experiment [1] (setting [7]), in experiment [2] and in experiment [3] was more than 25 µM throughout.

On to `Clc1ccc(CCNc2ncnc3ccccc23)cc1` [8a], for which the IC50 in experiment [1] (setting [7]), in experiment [2] and in experiment [3] was more than 25 µM throughout.

Consider `FS(F)(F)(F)(F)c1ccc(CCNc2ncnc3ccccc23)cc1` [9a], for which the IC50 in experiment [1] (setting [7]), in experiment [2] and in experiment [3] was more than 25 µM each time.

With `Cc1ccc(CCNc2ncnc3ccccc23)cc1` [10a], the IC50 in experiment [1] (setting [7]), in experiment [2] and in experiment [3] was more than 25 µM each time.

For the compound `COc1ccc(CCNc2ncnc3ccccc23)cc1` [11a], the IC50 in experiment [1] (setting [7]), in experiment [2] and in experiment [3] was more than 25 µM in each case.

For the compound `CC(C)(C)c1ccc(CCNc2ncnc3ccccc23)cc1` [12a, {2-[4-(tert-Butyl)phenyl]ethyl}quinazolin-4-ylamine], the IC50 in experiment [1] (setting [7]), in experiment [2] and in experiment [3] was more than 25 µM in each case.

Turning to `FC(F)(F)Oc1cccc(CCNc2ncnc3ccccc23)c1` [13a], the IC50 in experiment [1] (setting [7]), in experiment [2] and in experiment [3] was more than 25 µM throughout.

As for `CCOc1cccc(CCNc2ncnc3ccccc23)c1` [14a], the IC50 in experiment [1] (setting [7]), in experiment [2] and in experiment [3] was more than 25 µM throughout.

For the compound `FC(F)(F)c1ccccc1CCNc1ncnc2ccccc12` [15a, Quinazolin-4-yl{2-[2-(trifluromethyl)phenyl]ethyl}amine], the IC50 in experiment [1] (setting [7]), in experiment [2] and in experiment [3] was more than 25 µM throughout.

For `Fc1ccc2ncnc(NCCc3ccc(OC(F)(F)F)cc3)c2c1` [16a], the IC50 in experiment [4], in experiment [5] and in experiment [6] was more than 25 µM in each case.

As to `Cc1ccc2ncnc(NCCc3ccc(OC(F)(F)F)cc3)c2c1` [17a], the IC50 in experiment [4], in experiment [5] and in experiment [6] was more than 25 µM in each case.

On to `COc1ccc2ncnc(NCCc3ccc(OC(F)(F)F)cc3)c2c1` [18a], for which the IC50 in experiment [4], in experiment [5] and in experiment [6] was more than 25 µM throughout.

On to `Fc1ccc2c(NCCc3ccc(OC(F)(F)F)cc3)ncnc2c1` [19a, (7-Fluoroquinazolin-4-yl){2-[4-(trifluormethoxy)phenyl]ethyl}amine], for which the IC50 in experiment [4], in experiment [5] and in experiment [6] was more than 25 µM each time.

Consider `FC(F)(F)Oc1ccc(CCNc2ncnc3cc(Cl)ccc23)cc1` [20a], for which the IC50 in experiment [4], in experiment [5] and in experiment [6] was more than 25 µM in each case.

With `FC(F)(F)Oc1ccc(CCNc2ncnc3cc(Br)ccc23)cc1` [21a], the IC50 in experiment [4], in experiment [5] and in experiment [6] was more than 25 µM in each case.

For `FC(F)(F)Oc1ccc(CCNc2ncnc3cc(C(F)(F)F)ccc23)cc1` [22a], the IC50 in experiment [4], in experiment [5] and in experiment [6] was more than 25 µM each time.

For the compound `COc1ccc2c(NCCc3ccc(OC(F)(F)F)cc3)ncnc2c1` [23a], the IC50 in experiment [4], in experiment [5] and in experiment [6] was more than 25 µM each time.

Consider `Cc1nc(NCCc2ccc(OC(F)(F)F)cc2)c2ccccc2n1` [24a], for which the IC50 in experiment [4] came to 8.2 ± 0.654 µM; in experiment [5], 7.5 ± 1.02 µM; in experiment [6] it was 12.2 ± 0.737 µM.

For `FC(F)(F)Oc1ccc(CCNc2nc(C3CC3)nc3ccccc23)cc1` [25a], the IC50 in experiment [4] is 7.3 ± 1.05 µM; in experiment [5] it was 7.6 ± 1.03 µM; in experiment [6] it was 8.5 ± 1.53 µM.

Consider `Cc1nc(NCCc2ccc(OC(F)(F)F)cc2)c2ccc(F)cc2n1` [26a], for which the IC50 is more than 25 µM in experiment [4], 23.6 ± 7.81 µM in experiment [5] and more than 25 µM in experiment [6].

Turning to `COc1nc2ccc(Br)cc2cc1[C@@H](c1ccccc1)[C@@](O)(CCN(C)C)c1cccc2ccccc12` [BDQ], the IC50 in experiment [1] (setting [7]) was found to be 0.05 ± 0.003 µM; in experiment [2], 0.17 ± 0.019 µM; in experiment [3] it was 0.06 ± 0.019 µM.

`CC(C)=CCC/C(C)=C/CC/C(C)=C/Cc1c(C)[nH]c2ccccc2c1=O` [aurachin D]: the IC50 is more than 25 µM in experiment [1] (setting [7]), more than 25 µM in experiment [2] and 5.5 ± 1.11 µM in experiment [3].

Consider `FC(F)(F)c1ccc(Oc2ccc(Nc3ncnc4ccccc34)cc2)cc1` [compound 2], for which the IC50 in experiment [1] (setting [7]), in experiment [2] and in experiment [3] was more than 25 µM in each case.

Turning to `c1ccc(CCNc2ncnc3ccccc23)cc1` [compound 3], the IC50 is more than 25 µM in experiment [1] (Mycobacterium tuberculosis, N0145, 15 h, read-out: N0145 / –Q203); more than 25 µM in experiment [2]; more than 25 µM in experiment [3].
